The record followed here is US11413329B2, “Cancer cell trap” (BOARD OF REGENTS, THE UNIVERSITY OF TEXAS SYSTEM, priority 2012, dated 2022).

Structures are written as SMILES. Entries after “also recorded” stand apart in the source; their conditions may differ.

A short description of series [1]: In vivo release rate of chemotherapy drugs from hydrogel nanoparticle traps. To be noted: from EPO-loaded hydrogel nanoparticles. Here is the method:
(§1) The fabrication of temperature sensitive hydrogel nanoparticles is described in the recent publication (Cai T, Hu P, Sun M, Zhou J, Tsai Y-T, Baker D W, Tang L. Novel thermogelling dispersions of polymer nanoparticles for controlled protein release. Nanomedicine 8 (8): 1301-8, 2012). The nanoparticles were loaded with EPO (600 international units/1 ml) in the presence or absence of doxorubicine (300 μg/m1) and paclitaxel (30 mg/ml). For that, EPO (600 international units), doxorubicine (300 μg) or paclitaxel (30 mg) was mixed with 50 μg of hydrogel nanoparticles at room temperature. After implantation, the average in vivo release rates for doxorubicin and paclitaxel were measured at 10 μg/day and 1 mg/day, respectively.

The test system of a further series is PC3 cells. In words: Cancer cell killing at implant sites of EPO+doxorubicin-loaded particles. In kind it is in vivo. The following applies: EPO+doxorubicin-loaded vs EPO-loaded particles, 1, 2, 4, and 7 days. Here is the method: as §1
(§2) Further studies were carried out to determine whether the implantation of chemotherapy drug-loaded cancer cell traps can kill cancer cells at the implant sites. […] To quantify cell recruitment, tissue section images were taken using a Leica fluorescence microscope (Leica Microsystems Wetzlar GmbH, Wetzlar, Germany) equipped with a QImaging Retiga-EXi CCD camera (QImaging, Surrey, BC, Canada). The tissue section images at a magnification of 400× (viewing area 0.24 mm^2) were then used to quantify the cell numbers per view field by cell counter plugin of ImageJ processing program.

The test system of the next series is melanoma cells. In words: Cancer cell killing at implant sites of EPO+paclitaxel-loaded particles. In kind it is in vivo, C57 mice. To be noted: EPO+paclitaxel-loaded vs EPO-loaded particles, 1, 2, 4, and 7 days. Here is the method: as §1, §2
A further series relates to B16F10 melanoma cells. In words: Murine cancer metastasis model: melanoma cell migration to subcutaneous microsphere implants and lymph nodes. In kind it is in vivo, C57BL/6 mice. To be noted: B16F10 cells intraperitoneal. The procedure:
The animal experiments were carried out using C57BL/6 mice (6-10 week old) from Jackson Laboratory (Bar Harbor, Me., USA). This murine cancer metastasis model comprised of two consecutive steps. First, biomaterial microspheres (75 mg/0.5 ml saline/mouse) were implanted in the dorsal subcutaneous space of mice to elicit localized subcutaneous inflammation. Second, after microsphere implantation for different periods of time (6 hours-14 days), cancer cells (5×10^6 cells/0.2 ml/mouse) were transplanted in the peritoneal cavity. 24 h after tumor cell trans-plantation the animals were sacrificed. The vital organs, lymph nodes, the microsphere implants and surrounding tissues were then recovered and frozen in OCT embedding media (Polysciences Inc., Warrington, Pa., USA) at −80° C. The peripheral blood was also collected for further analysis. […]
Immunohistological analyses for CD11b+ inflammatory cells and HMB45+ melanoma cells were carried out to assess the degree of implant-mediated inflammatory responses and melanoma cell migration, respectively. […] FITC-conjugated antibody incubated tissue section was ready for image analysis. […] All tissue section images were taken using a Leica fluorescence microscope (Leica Microsystems GmbH, Wetzlar, Germany) equipped with a Retiga-EXi CCD camera (QImaging, Surrey, BC, Canada) as described earlier. […]

In series [2] the test system is CD11b+ inflammatory cells. The series is described as follows: Murine cancer metastasis model: inflammatory cell recruitment to subcutaneous microsphere implants. The format is in vivo, C57BL/6 mice. The following applies: vs control. The procedure: The animal experiments were carried out using C57BL/6 mice (6-10 week old) from Jackson Laboratory (Bar Harbor, Me., USA). This murine cancer metastasis model comprised of two consecutive steps. First, biomaterial microspheres (75 mg/0.5 ml saline/mouse) were implanted in the dorsal subcutaneous space of mice to elicit localized subcutaneous inflammation. Second, after microsphere implantation for different periods of time (6 hours-14 days), cancer cells (5×10^6 cells/0.2 ml/mouse) were transplanted in the peritoneal cavity. 24 h after tumor cell trans-plantation the animals were sacrificed. The vital organs, lymph nodes, the microsphere implants and surrounding tissues were then recovered and frozen in OCT embedding media (Polysciences Inc., Warrington, Pa., USA) at -80° C. The peripheral blood was also collected for further analysis. Eight μm thick sections were sliced using a Leica Cryostat (CM1850) and placed on poly-L-lysine coated slides for histological and immunohistochemical analyses. […] FITC-conjugated antibody incubated tissue section was ready for image analysis. […] All tissue section images were taken using a Leica fluorescence microscope (Leica Microsystems GmbH, Wetzlar, Germany) equipped with a Retiga-EXi CCD camera (QImaging, Surrey, BC, Canada) as described earlier. […]

As for `COc1cccc2c1C(=O)c1c(O)c3c(c(O)c1C2=O)C[C@@](O)(C(=O)CO)C[C@@H]3O[C@H]1C[C@H](N)[C@H](O)[C@H](C)O1` [doxorubicin], in series [1] (300 μg/ml), the “average in vivo release rate” value was determined as 10 µg/day. Moreover, the “numbers of recruited PC3 cells at implant” value in the series on PC3 cells was “substantially reduced”.
Regarding `CC(=O)O[C@H]1C(=O)[C@@]2(C)[C@H]([C@H](OC(=O)c3ccccc3)[C@]3(O)C[C@H](OC(=O)[C@H](O)[C@@H](NC(=O)c4ccccc4)c4ccccc4)C(C)=C1C3(C)C)[C@]1(OC(C)=O)CO[C@@H]1C[C@@H]2O` [paclitaxel], the “average in vivo release rate” value in series [1] (30 mg/ml) amounted to 1000 µg/day. Further, in the series with melanoma cells, the “numbers of recruited melanoma cells at implant” value was “substantially reduced”.
As to `c1cc(CN2CCCNCCNCCCNCC2)ccc1CN1CCCNCCNCCCNCC1` [AMD3100], the “accumulation of melanoma cells in lymph nodes” value in the series on B16F10 melanoma cells (PLA microsphere-bearing mice, vs saline) was “no effect”. Also, the “recruitment of melanoma cells (HMB45+) to the subcutaneous microsphere implantation site” value in the series on B16F10 melanoma cells (subcutaneous microsphere implants, 24 h after transplantation, vs control) is on record as “drastically reduced; also recorded: inhibited”. In addition, in series [2], the “inflammatory cell (CD11b+) recruitment to the subcutaneous microsphere implantation site” value is given as “drastically reduced”.
